Source: ChEMBL document CHEMBL2150845, “BACE Inhibitors: Potential Treatment of Alzheimer's Disease, Dementia, and Related Neurodegenerative Disorders (A): 5,6-Dihydroimidazo[1,2-a]pyrazin-8-yl-amine Derivatives: Patent Highlight” (ACS Med Chem Lett, 2012)

Target: Beta-secretase 1 (Homo sapiens, UniProt P56817)
Test: Inhibition of BACE1 by FRET assay

Chain of Beta-secretase 1 (P56817 whole entry): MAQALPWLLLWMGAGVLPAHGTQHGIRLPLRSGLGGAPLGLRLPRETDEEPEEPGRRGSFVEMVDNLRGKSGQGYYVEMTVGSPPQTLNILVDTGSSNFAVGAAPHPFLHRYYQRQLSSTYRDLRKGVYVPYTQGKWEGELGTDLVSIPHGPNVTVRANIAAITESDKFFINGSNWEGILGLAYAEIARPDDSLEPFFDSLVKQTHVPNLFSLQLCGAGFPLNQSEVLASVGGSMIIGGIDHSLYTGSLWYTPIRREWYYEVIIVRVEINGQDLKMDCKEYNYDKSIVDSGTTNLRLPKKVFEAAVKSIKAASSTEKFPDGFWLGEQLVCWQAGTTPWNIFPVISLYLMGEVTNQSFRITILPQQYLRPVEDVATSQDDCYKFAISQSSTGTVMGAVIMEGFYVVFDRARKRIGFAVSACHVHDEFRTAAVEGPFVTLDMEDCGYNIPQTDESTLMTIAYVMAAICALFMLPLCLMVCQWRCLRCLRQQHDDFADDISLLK

Row | IC50 [nM] | SMILES
1 | 38.9 | C[C@@]1(c2cc(NC(=O)c3ccc(C#N)cn3)ccc2F)Cn2c(C#N)cnc2C(N)=N1
2 | 44.7 | C[C@@]1(c2cc(NC(=O)c3ccn(C(F)F)n3)ccc2F)Cn2c(C#N)cnc2C(N)=N1
3 | 46.8 | C[C@@]1(c2cc(NC(=O)c3ccn(C(F)F)n3)ccc2F)Cn2cc(C(F)(F)F)nc2C(N)=N1
4 | > 30200 | NC1=N[C@@](c2cc(NC(=O)c3ccc(F)cn3)ccc2F)(C(F)F)Cn2ccnc21
